Test results from ChEMBL document CHEMBL1201862, “PubChem BioAssay data set” (2004).
The source made the active and inactive calls.

Columns and labels:
[1] = molecular target: Potassium voltage-gated channel subfamily KQT member 2 (Rattus norvegicus, UniProt O88943); experiment: retigabine-insensitive KCNQ2 potentiators, concentration-response, dose response, cell-based, retigabine-insensitive compounds (AID 2654); format: functional
Caspase-3 = molecular target: T1, Caspase-3 (Homo sapiens, UniProt P42574); format: functional;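 note: Dose-response selectivity test against caspase-3 for candidate inhibitors of sentrin-specific proteases (SENPs)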
T1 sequence (P42574 whole entry): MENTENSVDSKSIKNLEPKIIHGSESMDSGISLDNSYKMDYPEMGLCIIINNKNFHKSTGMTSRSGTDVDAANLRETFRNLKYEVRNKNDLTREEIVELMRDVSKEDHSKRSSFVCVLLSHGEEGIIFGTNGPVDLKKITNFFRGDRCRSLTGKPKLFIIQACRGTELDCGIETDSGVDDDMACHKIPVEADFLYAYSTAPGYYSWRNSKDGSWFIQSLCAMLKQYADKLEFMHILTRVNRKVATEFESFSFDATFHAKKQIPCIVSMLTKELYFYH

[2] = molecular target: T2, Sentrin-specific protease 7 (Homo sapiens, UniProt Q9BQF6); format: functional;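 note: Luminescence-based dose-response confirmation of ultra-high-throughput screening hits, measuring inhibition of SENP7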
T2 sequence (Q9BQF6 whole entry): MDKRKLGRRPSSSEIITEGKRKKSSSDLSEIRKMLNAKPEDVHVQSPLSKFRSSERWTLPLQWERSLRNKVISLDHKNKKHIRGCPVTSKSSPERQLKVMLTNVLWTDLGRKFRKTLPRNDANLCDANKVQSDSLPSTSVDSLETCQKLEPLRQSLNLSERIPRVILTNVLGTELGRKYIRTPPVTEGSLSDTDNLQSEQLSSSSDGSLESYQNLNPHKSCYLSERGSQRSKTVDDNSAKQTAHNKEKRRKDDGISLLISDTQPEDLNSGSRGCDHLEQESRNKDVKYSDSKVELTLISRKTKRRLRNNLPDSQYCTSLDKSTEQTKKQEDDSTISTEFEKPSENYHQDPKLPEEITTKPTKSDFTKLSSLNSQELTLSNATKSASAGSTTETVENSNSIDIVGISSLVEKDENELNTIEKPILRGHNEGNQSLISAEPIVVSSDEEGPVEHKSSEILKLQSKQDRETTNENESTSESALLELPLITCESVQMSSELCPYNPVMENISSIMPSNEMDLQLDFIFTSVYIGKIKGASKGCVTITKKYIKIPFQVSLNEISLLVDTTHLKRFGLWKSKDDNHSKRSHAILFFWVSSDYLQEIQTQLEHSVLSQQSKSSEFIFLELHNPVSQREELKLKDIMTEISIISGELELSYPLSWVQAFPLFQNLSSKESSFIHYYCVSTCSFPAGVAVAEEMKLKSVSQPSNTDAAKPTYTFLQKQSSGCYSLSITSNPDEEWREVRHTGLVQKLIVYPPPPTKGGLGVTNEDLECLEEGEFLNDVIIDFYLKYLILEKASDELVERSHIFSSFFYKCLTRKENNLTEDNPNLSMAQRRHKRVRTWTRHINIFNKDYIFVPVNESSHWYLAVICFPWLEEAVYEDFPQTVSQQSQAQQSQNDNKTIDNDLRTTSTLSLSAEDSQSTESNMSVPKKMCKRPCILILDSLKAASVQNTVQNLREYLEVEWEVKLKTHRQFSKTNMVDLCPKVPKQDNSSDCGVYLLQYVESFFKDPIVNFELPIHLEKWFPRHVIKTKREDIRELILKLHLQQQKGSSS

[3] = molecular target: T3, Sentrin-specific protease 6 (Homo sapiens, UniProt Q9GZR1); format: functional;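 note: Luminescence-based dose-response confirmatory assay of SENP6 inhibition, following up an ultra-high-throughput screen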
T3 sequence (Q9GZR1 whole entry): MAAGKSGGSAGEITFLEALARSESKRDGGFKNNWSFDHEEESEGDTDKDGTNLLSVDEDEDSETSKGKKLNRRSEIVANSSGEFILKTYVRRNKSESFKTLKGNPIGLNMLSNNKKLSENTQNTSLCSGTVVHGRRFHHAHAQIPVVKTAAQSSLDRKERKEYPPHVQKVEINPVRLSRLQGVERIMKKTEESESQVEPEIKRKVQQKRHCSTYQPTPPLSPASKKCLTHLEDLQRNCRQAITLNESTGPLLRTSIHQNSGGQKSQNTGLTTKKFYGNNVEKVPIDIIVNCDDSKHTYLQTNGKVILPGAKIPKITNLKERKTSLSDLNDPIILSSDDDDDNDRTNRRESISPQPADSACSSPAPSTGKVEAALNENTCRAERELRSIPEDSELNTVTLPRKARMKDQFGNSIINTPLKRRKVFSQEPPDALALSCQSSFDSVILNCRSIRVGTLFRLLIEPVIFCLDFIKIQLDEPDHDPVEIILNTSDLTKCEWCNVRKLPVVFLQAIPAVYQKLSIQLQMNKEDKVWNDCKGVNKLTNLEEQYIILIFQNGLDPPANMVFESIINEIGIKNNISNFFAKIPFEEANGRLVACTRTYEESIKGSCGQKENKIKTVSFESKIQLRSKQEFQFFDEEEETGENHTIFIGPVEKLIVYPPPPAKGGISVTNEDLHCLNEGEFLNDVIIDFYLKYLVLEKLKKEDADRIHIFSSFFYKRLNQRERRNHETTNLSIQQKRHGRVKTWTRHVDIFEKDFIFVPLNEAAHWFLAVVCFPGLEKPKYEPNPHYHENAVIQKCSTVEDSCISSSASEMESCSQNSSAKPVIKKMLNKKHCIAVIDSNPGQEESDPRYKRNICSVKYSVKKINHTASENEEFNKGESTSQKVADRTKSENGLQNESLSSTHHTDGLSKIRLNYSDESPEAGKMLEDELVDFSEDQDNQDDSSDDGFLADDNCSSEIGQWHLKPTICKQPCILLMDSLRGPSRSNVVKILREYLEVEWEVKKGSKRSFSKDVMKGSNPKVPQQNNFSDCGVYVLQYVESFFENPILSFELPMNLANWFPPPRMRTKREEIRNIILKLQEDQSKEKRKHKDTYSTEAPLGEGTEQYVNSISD

[4] = molecular target: T4, Sentrin-specific protease 8 (Homo sapiens, UniProt Q96LD8); format: functional;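 note: luminescence read-out of SENP8 inhibition, dose-response confirmation following an ultra-high-throughput screen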
T4 sequence (Q96LD8 whole entry): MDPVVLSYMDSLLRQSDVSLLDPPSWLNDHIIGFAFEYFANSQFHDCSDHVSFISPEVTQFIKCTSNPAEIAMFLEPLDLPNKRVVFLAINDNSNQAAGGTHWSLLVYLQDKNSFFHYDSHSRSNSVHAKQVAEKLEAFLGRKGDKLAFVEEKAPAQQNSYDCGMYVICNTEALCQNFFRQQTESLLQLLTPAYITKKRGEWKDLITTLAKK

[5] = growth suppression of PTEN-null colon cells, dose response, cell-based, HCT116 PTEN knockout (AID 1047); format: functional;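 note: HCT116 colon tumor cells with PTEN knocked out; cells exposed to compound for 60 hours before readout; potency for loss of cell viability measured by luminescence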
[6] = growth suppression of beta-catenin-knockout colon cells, dose response, cell-based, HCT116, human colon tumor (AID 1045); format: functional;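 note: HCT116 colon tumor cells with beta catenin knocked out; cells exposed to compound for 60 hours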
[7] = molecular target: 1-acylglycerol-3-phosphate O-acyltransferase ABHD5/Perilipin-5 (Homo sapiens, UniProt Q00G26+Q8WTS1); experiment: Luminescence-based biochemical high throughput dose response assay for inhibitors of the interaction of the lipase co-activator protein, abhydrolase domain containing 5 (ABHD5) with perilipin-5 (MLDP; PLIN5) (2K validation set). [Related pubchem assays (depositor defined):AID493035, AID493241]
Perilipin-1/ABHD5 = Perilipin-1/ABHD5 (Homo sapiens, UniProt O60240+Q8WTS1); experiment: Luminescence-based biochemical high throughput dose response assay for inhibitors of the interaction of the lipase co-activator protein, abhydrolase domain containing 5 (ABHD5) with perilipin-1 (PLIN1) (2K validation set). [Related pubchem assays (depositor defined):AID493027, AID493057]
Chain of Perilipin-1/ABHD5 (Q8WTS1 whole entry, the tested form may be a part): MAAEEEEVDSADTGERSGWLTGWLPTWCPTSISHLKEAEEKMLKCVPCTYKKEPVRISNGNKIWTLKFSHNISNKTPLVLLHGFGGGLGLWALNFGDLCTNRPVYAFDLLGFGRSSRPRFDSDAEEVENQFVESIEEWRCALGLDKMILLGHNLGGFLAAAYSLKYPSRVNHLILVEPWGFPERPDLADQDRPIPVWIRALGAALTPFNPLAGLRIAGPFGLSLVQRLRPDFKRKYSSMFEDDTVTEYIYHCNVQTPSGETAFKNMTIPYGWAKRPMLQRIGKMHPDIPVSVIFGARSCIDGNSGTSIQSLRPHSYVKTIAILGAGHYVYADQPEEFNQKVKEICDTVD
Chain of Perilipin-1/ABHD5 (O60240 whole entry, the tested form may be a part): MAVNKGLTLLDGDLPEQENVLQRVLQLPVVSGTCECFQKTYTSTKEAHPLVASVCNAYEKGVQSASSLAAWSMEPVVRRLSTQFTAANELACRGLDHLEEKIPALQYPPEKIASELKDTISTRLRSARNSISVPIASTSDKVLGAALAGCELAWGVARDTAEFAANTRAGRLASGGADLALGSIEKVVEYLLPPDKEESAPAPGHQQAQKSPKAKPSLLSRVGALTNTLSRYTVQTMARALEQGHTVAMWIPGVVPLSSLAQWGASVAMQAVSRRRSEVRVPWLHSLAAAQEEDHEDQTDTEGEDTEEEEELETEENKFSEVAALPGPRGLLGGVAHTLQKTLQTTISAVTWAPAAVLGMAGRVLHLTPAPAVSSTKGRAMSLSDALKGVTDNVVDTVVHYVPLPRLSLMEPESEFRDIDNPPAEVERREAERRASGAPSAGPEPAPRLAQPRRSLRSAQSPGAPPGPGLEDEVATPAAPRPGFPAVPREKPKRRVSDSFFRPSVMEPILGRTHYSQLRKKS

[8] = molecular target: T5, Heat shock factor protein 1 (Mus musculus, UniProt P38532); experiment: HSF1 potentiators in luciferase reporter cells, confirmation, cell-based, NIH3T3, luminescence, dose retest (AID 435004); format: functional;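 note: stress induced by proteasome inhibitor MG132 added 30 min after compound; luciferase reporter driven by HSF1 response element in NIH3T3 cells; actives raise luminescence as potentiators of the MG132 stress response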
T5 sequence (P38532 whole entry): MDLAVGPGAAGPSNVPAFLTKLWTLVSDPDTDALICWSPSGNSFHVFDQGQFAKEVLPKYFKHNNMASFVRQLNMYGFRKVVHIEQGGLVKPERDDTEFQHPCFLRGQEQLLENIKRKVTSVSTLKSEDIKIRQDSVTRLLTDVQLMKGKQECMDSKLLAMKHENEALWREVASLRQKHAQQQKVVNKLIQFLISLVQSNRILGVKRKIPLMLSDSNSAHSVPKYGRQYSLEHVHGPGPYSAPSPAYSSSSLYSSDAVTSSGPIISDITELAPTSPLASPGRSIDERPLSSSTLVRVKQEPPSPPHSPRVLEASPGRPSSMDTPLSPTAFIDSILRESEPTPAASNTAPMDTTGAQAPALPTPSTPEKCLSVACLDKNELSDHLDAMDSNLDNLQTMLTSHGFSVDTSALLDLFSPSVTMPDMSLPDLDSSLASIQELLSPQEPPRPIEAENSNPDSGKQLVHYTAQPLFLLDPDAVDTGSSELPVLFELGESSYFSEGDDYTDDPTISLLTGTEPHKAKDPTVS

Vero [9] = experiment: cells; format: functional; settings: Chlorocebus sabaeus
Importin subunit alpha-1 = Importin subunit alpha-1 (Homo sapiens, UniProt P52292); experiment: YIC FRET probe signal interference, dose response, counter-screen for RanGTP-importin-beta inhibitor project, biochemical, dry powder samples (AID 493094); format: functional
[10] = molecular target: DNA dC->dU-editing enzyme APOBEC-3A (Homo sapiens, UniProt P31941); experiment: APOBEC3A DNA deaminase inhibitors, dose response, biochemical (AID 504722); format: functional
Chain of DNA dC->dU-editing enzyme APOBEC-3A (P31941 whole entry): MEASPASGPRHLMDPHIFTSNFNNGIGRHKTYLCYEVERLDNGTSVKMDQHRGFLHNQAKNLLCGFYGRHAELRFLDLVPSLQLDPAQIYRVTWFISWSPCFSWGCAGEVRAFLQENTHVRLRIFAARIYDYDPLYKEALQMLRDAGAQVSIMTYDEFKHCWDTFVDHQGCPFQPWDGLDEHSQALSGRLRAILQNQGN

[11] = molecular target: DNA dC->dU-editing enzyme APOBEC-3G (Homo sapiens, UniProt Q9HC16); experiment: Dose Response confirmation of small molecule APOBEC3G DNA Deaminase Inhibitors via a fluorescence-based single-stranded DNA deaminase assay. [Related pubchem assays (depositor defined):AID493012, AID493028]; format: functional
Integrin alpha-L = Integrin alpha-L (Mus musculus, UniProt P24063); experiment: modulators of CD8 T cell-vesicle binding, dose response, powder samples, mouse 2C CD8+ cells (AID 504565); format: functional
Chain of Integrin alpha-L (P24063 whole entry): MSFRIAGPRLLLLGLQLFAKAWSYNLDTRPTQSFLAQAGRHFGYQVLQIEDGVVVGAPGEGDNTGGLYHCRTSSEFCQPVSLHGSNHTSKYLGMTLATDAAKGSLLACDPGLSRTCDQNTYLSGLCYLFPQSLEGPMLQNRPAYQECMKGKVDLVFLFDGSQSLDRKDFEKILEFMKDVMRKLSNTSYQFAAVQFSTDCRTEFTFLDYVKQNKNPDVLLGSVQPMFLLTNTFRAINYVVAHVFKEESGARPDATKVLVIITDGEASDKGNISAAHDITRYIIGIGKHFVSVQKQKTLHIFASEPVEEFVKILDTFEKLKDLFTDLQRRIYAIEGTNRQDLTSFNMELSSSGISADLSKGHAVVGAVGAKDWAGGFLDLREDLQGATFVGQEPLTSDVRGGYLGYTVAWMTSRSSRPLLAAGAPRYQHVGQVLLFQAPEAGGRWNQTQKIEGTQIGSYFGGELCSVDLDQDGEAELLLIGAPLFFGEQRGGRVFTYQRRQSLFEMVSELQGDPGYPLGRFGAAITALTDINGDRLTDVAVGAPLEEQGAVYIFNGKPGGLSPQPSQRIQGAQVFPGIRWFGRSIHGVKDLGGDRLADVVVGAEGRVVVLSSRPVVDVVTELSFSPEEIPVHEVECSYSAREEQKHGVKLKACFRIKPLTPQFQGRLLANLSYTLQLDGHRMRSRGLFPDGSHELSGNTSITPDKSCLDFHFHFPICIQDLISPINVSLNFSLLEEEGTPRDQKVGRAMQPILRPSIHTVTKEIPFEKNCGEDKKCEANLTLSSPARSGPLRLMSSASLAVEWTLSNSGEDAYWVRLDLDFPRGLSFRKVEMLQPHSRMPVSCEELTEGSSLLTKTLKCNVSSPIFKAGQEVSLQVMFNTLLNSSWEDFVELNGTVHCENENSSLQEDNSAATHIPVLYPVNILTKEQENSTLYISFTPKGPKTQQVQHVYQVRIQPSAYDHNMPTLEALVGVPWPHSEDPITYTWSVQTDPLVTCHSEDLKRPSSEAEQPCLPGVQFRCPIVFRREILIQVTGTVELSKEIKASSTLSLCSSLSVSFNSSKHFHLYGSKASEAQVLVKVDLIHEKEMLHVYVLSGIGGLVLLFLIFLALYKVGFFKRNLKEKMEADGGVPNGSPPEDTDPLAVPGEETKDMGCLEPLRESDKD

[12] = inhibitors of firefly luciferase expression or activity, dose response, H4 neuroglioma cells, luminescence (AID 1990); format: functional, cell-based
[13] = luciferase reporter signal reduction – luminescence, H4-C neuroglioblastoma cells, dose response (AID 2458); format: functional, cell-based;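 note: H4 neuroglioblastoma cells stably carrying a luciferase reporter gene fusion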
[14] = tested on: Streptococcus sp. 'group A'; experiment: growth inhibition of control SK(-) GAS strain, dose response, counter-screen for streptokinase expression inhibitor project, luminescence, kanamycin, BacTiterGlo, confirmation (AID 1900); format: functional, organism-based
cells [15] = format: functional, cell-based
Beta-galactosidase [16] = molecular target: T6, Beta-galactosidase (Escherichia coli, UniProt Q8VNN2); experiment: PubChem AID 485352; format: functional
T6 sequence (Q8VNN2 whole entry): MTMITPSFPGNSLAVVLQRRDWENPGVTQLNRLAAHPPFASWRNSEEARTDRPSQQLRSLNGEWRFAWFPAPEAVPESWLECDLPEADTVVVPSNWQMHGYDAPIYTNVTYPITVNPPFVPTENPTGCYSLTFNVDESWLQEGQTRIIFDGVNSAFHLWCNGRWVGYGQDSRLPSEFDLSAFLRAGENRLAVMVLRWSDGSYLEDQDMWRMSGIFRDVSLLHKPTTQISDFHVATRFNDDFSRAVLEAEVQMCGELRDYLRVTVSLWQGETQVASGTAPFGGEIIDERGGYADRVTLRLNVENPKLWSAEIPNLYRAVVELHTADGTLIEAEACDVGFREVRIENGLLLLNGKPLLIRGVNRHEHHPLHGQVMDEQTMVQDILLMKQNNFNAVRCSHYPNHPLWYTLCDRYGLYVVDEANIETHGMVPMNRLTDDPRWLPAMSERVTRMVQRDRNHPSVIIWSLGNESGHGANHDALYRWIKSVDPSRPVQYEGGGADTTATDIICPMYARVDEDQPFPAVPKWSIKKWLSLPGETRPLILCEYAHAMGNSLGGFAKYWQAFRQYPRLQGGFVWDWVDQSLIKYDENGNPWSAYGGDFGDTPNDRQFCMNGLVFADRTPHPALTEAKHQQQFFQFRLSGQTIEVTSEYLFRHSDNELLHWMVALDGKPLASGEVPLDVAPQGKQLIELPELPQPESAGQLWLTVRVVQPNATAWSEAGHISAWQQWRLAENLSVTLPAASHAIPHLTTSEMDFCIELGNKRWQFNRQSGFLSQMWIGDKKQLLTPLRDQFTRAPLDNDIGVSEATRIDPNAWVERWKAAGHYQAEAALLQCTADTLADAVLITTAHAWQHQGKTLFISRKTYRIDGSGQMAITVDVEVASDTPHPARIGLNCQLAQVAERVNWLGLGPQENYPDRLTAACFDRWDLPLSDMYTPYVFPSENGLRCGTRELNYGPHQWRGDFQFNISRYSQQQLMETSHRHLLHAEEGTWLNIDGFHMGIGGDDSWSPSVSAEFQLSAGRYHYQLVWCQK

[17] = inhibitors of SNCA 5'UTR-driven reporter translation, confirmation, H4 neuroglioma cells, luminescence (AID 1988); format: functional, cell-based
[18] = molecular target: Type-1 angiotensin II receptor (Homo sapiens, UniProt P30556); experiment: AT1 receptor antagonists, dose response, selectivity assay for APJ receptor antagonist project, cell-based, uHTS hits (AID 463214); format: functional;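 note: antagonist potency against angiotensin II stimulated AT1 response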
[19] = molecular target: T7, Kappa-type opioid receptor (Homo sapiens, UniProt P41145); format: functional
T7 sequence (P41145 whole entry): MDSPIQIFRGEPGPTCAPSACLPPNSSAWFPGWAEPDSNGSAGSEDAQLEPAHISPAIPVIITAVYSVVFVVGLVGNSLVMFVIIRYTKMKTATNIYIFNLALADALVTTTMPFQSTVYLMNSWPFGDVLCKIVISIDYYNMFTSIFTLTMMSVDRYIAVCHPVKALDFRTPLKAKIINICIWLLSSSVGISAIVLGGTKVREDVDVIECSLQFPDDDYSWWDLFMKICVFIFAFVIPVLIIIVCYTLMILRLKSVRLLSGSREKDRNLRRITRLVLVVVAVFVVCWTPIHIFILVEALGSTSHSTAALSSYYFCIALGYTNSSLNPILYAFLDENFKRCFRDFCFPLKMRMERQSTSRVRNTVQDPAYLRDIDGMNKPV

Beta-galactosidase [20] = molecular target: T6, Beta-galactosidase; format: functional
[21] = molecular target: T7, Kappa-type opioid receptor; format: functional; remark: listed apart in the source
Streptococcus = experiment: Group A Streptococcus viability loss, dose response, counter-screen for streptokinase expression inhibitor project, luminescence, BacTiterGlo (AID 1915); format: functional, organism-based;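 note: potency for reduction of bacterial viability or growth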
[22] = inhibitors of SNCA 5'UTR-driven translation, confirmation, luminescence, H4 neuroglioblastoma cells, dose confirmation (AID 2454); format: functional, cell-based;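 note: H4 neuroglioblastoma cells carrying an alpha-synuclein 5'UTR luciferase reporter; potency for inhibition of the luciferase signal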
[23] = THP-1 cell cytotoxicity, dose response, cytotoxicity control for non-replicating M. tuberculosis project (AID 489025); format: functional
[24] = HepG2 cell cytotoxicity, dose response, cytotoxicity control for non-replicating M. tuberculosis project (AID 489018); format: functional; settings: Mycobacterium tuberculosis
[25] = Vero E6 cell cytotoxicity, dose response, cytotoxicity control for non-replicating M. tuberculosis project, secondary assay (AID 492998); format: functional, VeroE6; settings: Vero C1008
Nonstructural protein 1 = Nonstructural protein 1 (Influenza A virus, UniProt Q194T2); format: functional, Influenza A virus (A/California/07/2009(H1N1))
Chain of Nonstructural protein 1 (Q194T2 whole entry): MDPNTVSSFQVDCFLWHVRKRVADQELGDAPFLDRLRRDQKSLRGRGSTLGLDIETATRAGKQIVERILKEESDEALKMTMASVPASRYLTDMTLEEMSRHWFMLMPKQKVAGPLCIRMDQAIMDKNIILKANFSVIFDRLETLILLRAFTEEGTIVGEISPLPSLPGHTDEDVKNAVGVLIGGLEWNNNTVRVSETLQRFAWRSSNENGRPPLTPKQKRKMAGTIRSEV

cells [26] = format: functional
Vero [27] = experiment: cells; format: functional, cell-based; settings: Chlorocebus sabaeus
INS1 = experiment: beta cell apoptosis inhibitors, cytokine rescue, dose response, luminescence, retest (AID 449756); format: functional, cell-based; settings: Rattus norvegicus;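 note: cell death triggered by IL-1 beta plus TNF-alpha plus IFN-gamma mixture; protective hits raise ATP signal compared with cytokine alone wells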
Beta-galactosidase [28] = molecular target: T6, Beta-galactosidase; experiment: Dose response counterscreen for EBI2 assay utilizing the enzyme, b-galactosidase.; format: functional

Chain of Potassium voltage-gated channel subfamily KQT member 2 (O88943 whole entry): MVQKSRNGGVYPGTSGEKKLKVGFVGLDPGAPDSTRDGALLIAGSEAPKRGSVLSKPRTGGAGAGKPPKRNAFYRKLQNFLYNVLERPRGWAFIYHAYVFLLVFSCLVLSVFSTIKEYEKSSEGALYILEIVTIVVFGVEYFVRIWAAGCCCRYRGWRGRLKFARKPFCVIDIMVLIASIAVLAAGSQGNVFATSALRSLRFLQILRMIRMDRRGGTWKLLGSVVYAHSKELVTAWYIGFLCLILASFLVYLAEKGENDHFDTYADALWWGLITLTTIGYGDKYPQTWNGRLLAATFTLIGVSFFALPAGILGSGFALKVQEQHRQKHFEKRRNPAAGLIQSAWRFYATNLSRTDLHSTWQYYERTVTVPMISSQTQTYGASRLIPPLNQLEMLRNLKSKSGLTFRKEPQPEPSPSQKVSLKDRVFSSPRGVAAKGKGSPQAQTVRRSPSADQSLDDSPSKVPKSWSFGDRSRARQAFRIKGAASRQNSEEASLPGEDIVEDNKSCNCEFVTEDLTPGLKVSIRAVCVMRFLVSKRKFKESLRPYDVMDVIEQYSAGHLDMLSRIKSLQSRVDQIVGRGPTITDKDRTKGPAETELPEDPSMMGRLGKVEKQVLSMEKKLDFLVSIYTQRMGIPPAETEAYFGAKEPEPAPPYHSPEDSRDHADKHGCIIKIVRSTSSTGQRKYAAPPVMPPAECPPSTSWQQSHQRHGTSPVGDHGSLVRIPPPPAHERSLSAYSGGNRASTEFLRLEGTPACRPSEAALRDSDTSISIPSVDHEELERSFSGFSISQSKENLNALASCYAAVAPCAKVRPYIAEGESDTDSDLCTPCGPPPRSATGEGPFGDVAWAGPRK

CCCCc1ccc(NC(=O)Nc2cccnc2)cc1
EC50 [1]: 13.7 µM (active) | IC50 (Caspase-3): 22.7 µM (active) | IC50 [2]: 5.08 µM (active) | IC50 [3]: 14.1 µM (active) | IC50 [4]: 16.8 µM (active)

O=C(/C=C/Sc1ccccc1)c1ccccc1
EC50 [5]: 27.7 µM (active) | EC50 [6]: 28.4 µM (active) | IC50 [7]: 3.91 µM (active) | IC50 (Perilipin-1/ABHD5): 3.91 µM (active) | EC50 [8]: 5.83 µM (active) | CC50 (Vero [9]): 23.6 µM (active)

CSc1ccc(/C=C(/Sc2nnc(-c3ccccc3)o2)C(=O)O)cc1
AC50 (Importin subunit alpha-1): 116 µM (active)

CCc1c(C)nc(S)c(C#N)c1C
IC50 [10]: > 100 µM (inactive) | IC50 [11]: 6 µM (active)

O=C(c1ccc(N2C(=O)C3CC=C(Cl)CC3C2=O)cc1)N1CCCCC1 (stereo unspecified)
EC50 (Integrin alpha-L): 9.02 µM (active)

C/C(=N\NC(=O)c1cccc(Br)c1)c1ccccn1
EC50 [12]: 30 µM (active) | EC50 [13]: 0.714 µM (active) | EC50 [14]: 1.29 µM (active) | EC50 (cells [15]): 0.966 µM (active) | EC50 (Beta-galactosidase [16]): > 40 µM (inactive) | EC50 [17]: < 0.1 µM (active) | IC50 [18]: 3.51 µM (active) | IC50 [19]: 1.82 µM (active) | EC50 (Beta-galactosidase [20]): > 31.5 µM (inactive) | IC50 [21]: > 32 µM | EC50 (Streptococcus): 4.74 µM (active) | EC50 [22]: 0.895 µM (active) | CC50 [23]: 0.584 µM (active) | CC50 [24]: 2.71 µM (active) | CC50 [25]: 1.03 µM (active) | IC50 (Nonstructural protein 1): 1.67 µM (active) | IC50 (cells [26]): 0.57 µM (active) | IC50 (Vero [27]): > 25 µM (active) | AC50 (INS1): 0.315 µM (active) | CC50 (Vero [9]): 1.78 µM (active) | IC50 (Beta-galactosidase [28]): > 80 µM (inactive)
